Test results reported in ChEMBL document CHEMBL5038588 (J Med Chem, 2021).

Experiments:
BaF3 [1] = experiment: Inhibition of cell proliferation in mouse BaF3 cells expressing BCR-ABL T315I mutant assessed as cell viability at 100 uM measured after 48 hrs by trypan blue based assay (RVB=100%); type: functional; settings: read-out: Activity
KU812 cell line = experiment: Cytotoxicity against human KU812 cells assessed as inhibition of cell growth measured after 72 hrs by MTT assay; type: functional, cell-based; settings: KU812, 72 h
U-937 = experiment: Cytotoxicity against human U-937 cells assessed as inhibition of cell growth measured after 72 hrs by MTT assay; type: functional, cell-based; settings: U-937, 72 h
Jurkat = experiment: Cytotoxicity against human Jurkat cells assessed as inhibition of cell growth measured after 72 hrs by MTT assay; type: functional, cell-based
K562 [2] = settings: Homo sapiens
[3] = Tmax in ICR mouse at 15 mg/kg, po measured upto 24 hrs by LC/MS/MS analysis; type: ADME, organism-based; settings: in vivo
[4] = Tmax in ICR mouse at 5 mg/kg, iv measured upto 24 hrs by LC/MS/MS analysis; type: ADME, organism-based; settings: in vivo
[5] = Cmax in ICR mouse at 15 mg/kg, po measured upto 24 hrs by LC/MS/MS analysis; type: ADME, organism-based; set-up: route oral, dose 15 mg/kg, time <=24; settings: in vivo
[6] = Cmax in ICR mouse at 5 mg/kg, iv measured upto 24 hrs by LC/MS/MS analysis; type: ADME, organism-based; set-up: route intravenous, dose 5 mg/kg, time <=24; settings: in vivo
[7] = AUC (0 to t) in ICR mouse at 15 mg/kg, po measured upto 24 hrs by LC/MS/MS analysis; type: ADME, organism-based; set-up: route oral, dose 15 mg/kg, time <=24; settings: in vivo
[8] = AUC (0 to t) in ICR mouse at 5 mg/kg, iv measured upto 24 hrs by LC/MS/MS analysis; type: ADME, organism-based; set-up: route intravenous, dose 5 mg/kg, time <=24; settings: in vivo
[9] = AUC (0 to infinity) in ICR mouse at 15 mg/kg, po measured upto 24 hrs by LC/MS/MS analysis; type: ADME, organism-based; set-up: route oral, dose 15 mg/kg, time <=24; settings: in vivo
[10] = AUC (0 to infinity) in ICR mouse at 5 mg/kg, iv measured upto 24 hrs by LC/MS/MS analysis; type: ADME, organism-based; set-up: route intravenous, dose 5 mg/kg, time <=24; settings: in vivo
[11] = MRT in ICR mouse at 15 mg/kg, po measured upto 24 hrs by LC/MS/MS analysis; type: ADME, organism-based; settings: in vivo
[12] = MRT in ICR mouse at 5 mg/kg, iv measured upto 24 hrs by LC/MS/MS analysis; type: ADME, organism-based; settings: in vivo
[13] = Half life in ICR mouse at 15 mg/kg, po measured upto 24 hrs by LC/MS/MS analysis; type: ADME, organism-based; settings: in vivo
[14] = Half life in ICR mouse at 5 mg/kg, iv measured upto 24 hrs by LC/MS/MS analysis; type: ADME, organism-based; settings: in vivo
[15] = Clearance in ICR mouse at 5 mg/kg, iv measured upto 24 hrs by LC/MS/MS analysis; type: ADME, organism-based; settings: in vivo
[16] = Volume of distribution at steady state in ICR mouse at 5 mg/kg, iv measured upto 24 hrs by LC/MS/MS analysis; type: ADME, organism-based; settings: in vivo, read-out: Vdss
[17] = Oral bioavailability in ICR mouse at 15 mg/kg measured upto 24 hrs by LC/MS/MS analysis; type: ADME, organism-based; settings: in vivo
BaF3 [18] = experiment: cells; settings: Mus musculus, BaF3, 72 h
BaF3 [19] = experiment: animal or person; settings: Mus musculus, BaF3, po, 360 h, read-out: TGI
BaF3 [20] = experiment: cells; settings: Mus musculus, BaF3, 48 h
K562 [21] = experiment: cells; settings: Homo sapiens, K562, 72 h
[22] = molecular target: Voltage-gated inwardly rectifying potassium channel KCNH2 (Homo sapiens, UniProt Q12809); experiment: Inhibition of hERG; type: toxicity
Salmonella typhimurium [23] = experiment: Mutagenecity in Salmonella typhimurium TA97a at 0.5 to 312.5 ug/ml incubated for 42 to 72 hrs in presence of S9 fraction by Ames test; type: toxicity, organism-based; settings: salmonella enterica subsp. enterica serovar typhimurium, dose lower 0.5 µg/ml, time lower 42 hrs, dose upper 312.5 µg/ml, time upper 72 hrs
Salmonella typhimurium [24] = experiment: Mutagenecity in Salmonella typhimurium TA98 at 0.5 to 312.5 ug/ml incubated for 42 to 72 hrs in presence of S9 fraction by Ames test; type: toxicity, organism-based; settings: salmonella enterica subsp. enterica serovar typhimurium, dose lower 0.5 µg/ml, time lower 42 hrs, dose upper 312.5 µg/ml, time upper 72 hrs
Salmonella typhimurium [25] = experiment: Mutagenecity in Salmonella typhimurium TA102 at 0.5 to 312.5 ug/ml incubated for 42 to 72 hrs in presence of S9 fraction by Ames test; type: toxicity, organism-based; settings: salmonella enterica subsp. enterica serovar typhimurium, dose lower 0.5 µg/ml, time lower 42 hrs, dose upper 312.5 µg/ml, time upper 72 hrs
Salmonella typhimurium [26] = experiment: Mutagenecity in Salmonella typhimurium TA100 at 0.5 to 312.5 ug/ml incubated for 42 to 72 hrs in presence of S9 fraction by Ames test; type: toxicity, organism-based; settings: salmonella enterica subsp. enterica serovar typhimurium, dose lower 0.5 µg/ml, time lower 42 hrs, dose upper 312.5 µg/ml, time upper 72 hrs
[27] = Genotoxicity in ICR mouse bone marrow at 25 to 100 mg/kg administered via oral gavage and measured after 24 to 48 hrs by micronucleus assay; type: toxicity, organism-based; settings: in vivo, dose lower 25 mg/kg, time lower 24 hrs, dose upper 100 mg/kg, time upper 48 hrs
[28] = Toxicity in ICR mouse assessed as maximum tolerated dose administered as single oral dose for 14 days; settings: in vivo, time 14 day
[29] = molecular target: Proto-oncogene tyrosine-protein kinase Src (Homo sapiens, UniProt P12931); experiment: Inhibition of human c-SRC using poly [Glu:Tyr] as substrate incubated for 30 mins followed by 33P-ATP addition and measured after 2 hrs by liquid scintillation counter method
[30] = molecular target: T1, Receptor-type tyrosine-protein kinase FLT3 (Homo sapiens, UniProt P36888); experiment: Inhibition of human FLT3 using EAIYAAPFAKKK as substrate incubated for 30 mins followed by 33P-ATP addition and measured after 2 hrs by liquid scintillation counter method
T1 sequence (P36888 whole entry): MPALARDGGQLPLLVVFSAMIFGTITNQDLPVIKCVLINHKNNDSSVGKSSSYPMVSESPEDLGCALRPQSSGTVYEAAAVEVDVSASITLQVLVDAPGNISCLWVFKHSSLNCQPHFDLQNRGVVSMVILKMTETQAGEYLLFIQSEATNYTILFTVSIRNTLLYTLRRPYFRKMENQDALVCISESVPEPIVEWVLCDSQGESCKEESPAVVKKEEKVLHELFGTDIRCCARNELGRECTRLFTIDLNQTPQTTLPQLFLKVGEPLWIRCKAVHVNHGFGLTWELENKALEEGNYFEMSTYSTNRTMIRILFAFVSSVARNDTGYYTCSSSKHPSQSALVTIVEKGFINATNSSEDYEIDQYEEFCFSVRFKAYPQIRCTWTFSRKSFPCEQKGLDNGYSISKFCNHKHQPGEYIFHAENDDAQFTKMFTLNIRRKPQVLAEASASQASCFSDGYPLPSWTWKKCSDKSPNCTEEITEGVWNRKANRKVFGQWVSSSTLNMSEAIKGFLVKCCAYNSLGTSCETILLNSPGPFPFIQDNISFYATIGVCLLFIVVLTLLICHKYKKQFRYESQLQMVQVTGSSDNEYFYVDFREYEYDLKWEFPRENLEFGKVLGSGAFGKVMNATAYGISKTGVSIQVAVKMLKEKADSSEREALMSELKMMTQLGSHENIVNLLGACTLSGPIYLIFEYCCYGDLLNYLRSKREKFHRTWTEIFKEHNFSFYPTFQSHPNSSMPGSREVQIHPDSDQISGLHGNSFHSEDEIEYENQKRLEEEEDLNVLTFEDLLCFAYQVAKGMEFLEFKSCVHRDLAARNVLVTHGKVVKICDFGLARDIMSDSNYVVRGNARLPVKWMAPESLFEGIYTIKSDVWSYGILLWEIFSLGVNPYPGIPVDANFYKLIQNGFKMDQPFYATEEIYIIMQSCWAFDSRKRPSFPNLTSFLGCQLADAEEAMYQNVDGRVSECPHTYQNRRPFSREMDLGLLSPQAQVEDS

[31] = molecular target: Vascular endothelial growth factor receptor 2 (Homo sapiens, UniProt P35968); experiment: Inhibition of human KDR/VEGFR2 using poly [Glu:Tyr] as substrate incubated for 30 mins followed by 33P-ATP addition and measured after 2 hrs by liquid scintillation counter method
[32] = molecular target: Tyrosine-protein kinase Lyn (Homo sapiens, UniProt P07948); experiment: Inhibition of human LYN using poly [Glu:Tyr] as substrate incubated for 30 mins followed by 33P-ATP addition and measured after 2 hrs by liquid scintillation counter method
[33] = molecular target: Platelet-derived growth factor receptor alpha (Homo sapiens, UniProt P16234); experiment: Inhibition of human PDGFRa using poly [Glu:Tyr] as substrate incubated for 30 mins followed by 33P-ATP addition and measured after 2 hrs by liquid scintillation counter method
Salmonella typhimurium [34] = experiment: Mutagenecity in Salmonella typhimurium TA1535 at 0.5 to 312.5 ug/ml incubated for 42 to 72 hrs in presence of S9 fraction by Ames test; type: toxicity, organism-based; settings: salmonella enterica subsp. enterica serovar typhimurium, dose lower 0.5 µg/ml, time lower 42 hrs, dose upper 312.5 µg/ml, time upper 72 hrs

Voltage-gated inwardly rectifying potassium channel KCNH2, sequence (Q12809 whole entry): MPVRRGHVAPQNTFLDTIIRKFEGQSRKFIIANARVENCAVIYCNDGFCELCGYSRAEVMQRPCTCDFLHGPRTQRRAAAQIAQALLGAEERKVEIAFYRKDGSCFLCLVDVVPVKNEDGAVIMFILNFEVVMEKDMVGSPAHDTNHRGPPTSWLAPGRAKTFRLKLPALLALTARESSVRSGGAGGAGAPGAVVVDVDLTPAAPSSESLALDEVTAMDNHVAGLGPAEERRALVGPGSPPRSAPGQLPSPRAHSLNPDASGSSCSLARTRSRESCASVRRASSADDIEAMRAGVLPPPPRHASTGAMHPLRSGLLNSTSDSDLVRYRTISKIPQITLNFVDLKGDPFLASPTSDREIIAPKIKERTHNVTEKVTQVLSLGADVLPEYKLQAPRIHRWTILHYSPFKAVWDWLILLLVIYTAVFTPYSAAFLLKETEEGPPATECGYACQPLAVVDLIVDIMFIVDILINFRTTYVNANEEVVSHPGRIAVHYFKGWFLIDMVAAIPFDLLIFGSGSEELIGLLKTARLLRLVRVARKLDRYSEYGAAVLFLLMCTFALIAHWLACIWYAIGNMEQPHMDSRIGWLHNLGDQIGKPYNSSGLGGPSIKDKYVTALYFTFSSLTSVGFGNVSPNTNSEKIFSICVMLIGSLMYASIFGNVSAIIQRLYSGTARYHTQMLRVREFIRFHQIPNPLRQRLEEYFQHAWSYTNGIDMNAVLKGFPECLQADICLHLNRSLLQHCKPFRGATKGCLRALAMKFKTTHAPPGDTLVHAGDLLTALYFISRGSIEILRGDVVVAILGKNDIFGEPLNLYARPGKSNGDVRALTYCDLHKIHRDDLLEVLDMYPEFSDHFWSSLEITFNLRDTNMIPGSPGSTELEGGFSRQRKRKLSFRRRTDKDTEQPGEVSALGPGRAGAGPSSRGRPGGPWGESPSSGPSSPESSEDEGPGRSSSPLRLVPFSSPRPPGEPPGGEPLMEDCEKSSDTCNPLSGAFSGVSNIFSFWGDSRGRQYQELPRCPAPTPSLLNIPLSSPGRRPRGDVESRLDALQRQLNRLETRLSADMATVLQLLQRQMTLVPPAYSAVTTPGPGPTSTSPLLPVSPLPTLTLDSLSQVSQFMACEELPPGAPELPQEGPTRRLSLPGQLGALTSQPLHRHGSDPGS
Vascular endothelial growth factor receptor 2, sequence (P35968 whole entry): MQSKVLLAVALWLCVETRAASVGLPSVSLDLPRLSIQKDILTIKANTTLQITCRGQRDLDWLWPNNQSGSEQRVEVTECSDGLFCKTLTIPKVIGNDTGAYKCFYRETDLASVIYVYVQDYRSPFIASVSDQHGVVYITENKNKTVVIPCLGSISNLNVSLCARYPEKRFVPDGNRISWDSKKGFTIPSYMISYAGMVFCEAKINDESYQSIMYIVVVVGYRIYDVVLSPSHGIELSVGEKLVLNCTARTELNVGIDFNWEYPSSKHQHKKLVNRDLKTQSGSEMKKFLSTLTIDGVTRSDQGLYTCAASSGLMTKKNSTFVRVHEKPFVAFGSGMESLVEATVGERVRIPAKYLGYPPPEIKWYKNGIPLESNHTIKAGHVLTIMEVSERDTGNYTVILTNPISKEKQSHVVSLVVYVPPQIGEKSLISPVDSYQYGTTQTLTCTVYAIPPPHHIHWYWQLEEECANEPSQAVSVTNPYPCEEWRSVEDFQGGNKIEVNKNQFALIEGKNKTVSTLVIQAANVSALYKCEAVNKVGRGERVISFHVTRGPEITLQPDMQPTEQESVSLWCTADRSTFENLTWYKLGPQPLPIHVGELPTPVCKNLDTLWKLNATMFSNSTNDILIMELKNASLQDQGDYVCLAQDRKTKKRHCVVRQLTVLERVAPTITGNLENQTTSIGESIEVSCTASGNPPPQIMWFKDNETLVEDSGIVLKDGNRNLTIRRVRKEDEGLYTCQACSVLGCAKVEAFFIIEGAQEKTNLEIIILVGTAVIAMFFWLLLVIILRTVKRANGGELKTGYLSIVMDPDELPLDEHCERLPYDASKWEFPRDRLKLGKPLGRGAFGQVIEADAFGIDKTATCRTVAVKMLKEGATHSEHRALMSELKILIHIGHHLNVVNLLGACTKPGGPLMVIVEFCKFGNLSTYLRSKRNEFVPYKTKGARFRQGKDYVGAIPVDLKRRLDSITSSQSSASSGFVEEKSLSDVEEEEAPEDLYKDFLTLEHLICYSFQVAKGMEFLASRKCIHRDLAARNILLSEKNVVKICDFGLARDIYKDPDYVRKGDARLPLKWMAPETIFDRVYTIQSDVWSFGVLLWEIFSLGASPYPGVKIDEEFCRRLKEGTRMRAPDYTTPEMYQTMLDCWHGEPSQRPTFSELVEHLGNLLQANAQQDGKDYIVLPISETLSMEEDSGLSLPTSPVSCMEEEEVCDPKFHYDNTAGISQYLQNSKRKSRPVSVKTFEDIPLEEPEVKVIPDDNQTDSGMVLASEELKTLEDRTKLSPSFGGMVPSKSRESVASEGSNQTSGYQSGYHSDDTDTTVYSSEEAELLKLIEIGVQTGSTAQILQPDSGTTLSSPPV
Proto-oncogene tyrosine-protein kinase Src, sequence (P12931 2-536 limits assumed): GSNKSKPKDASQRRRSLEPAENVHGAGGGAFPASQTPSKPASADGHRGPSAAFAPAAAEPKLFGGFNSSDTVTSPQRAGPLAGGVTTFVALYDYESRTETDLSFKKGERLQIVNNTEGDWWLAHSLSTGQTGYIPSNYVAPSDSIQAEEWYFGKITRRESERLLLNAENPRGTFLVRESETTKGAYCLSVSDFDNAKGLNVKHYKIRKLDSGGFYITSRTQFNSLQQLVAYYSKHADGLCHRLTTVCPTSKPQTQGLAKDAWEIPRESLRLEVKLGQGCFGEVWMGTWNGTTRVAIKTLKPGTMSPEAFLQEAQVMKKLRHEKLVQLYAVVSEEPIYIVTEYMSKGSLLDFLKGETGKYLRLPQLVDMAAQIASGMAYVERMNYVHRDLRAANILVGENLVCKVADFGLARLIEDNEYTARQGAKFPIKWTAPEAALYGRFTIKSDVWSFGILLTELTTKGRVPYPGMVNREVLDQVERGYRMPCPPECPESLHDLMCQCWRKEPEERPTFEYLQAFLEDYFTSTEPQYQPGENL
Tyrosine-protein kinase Lyn, sequence (P07948 whole entry): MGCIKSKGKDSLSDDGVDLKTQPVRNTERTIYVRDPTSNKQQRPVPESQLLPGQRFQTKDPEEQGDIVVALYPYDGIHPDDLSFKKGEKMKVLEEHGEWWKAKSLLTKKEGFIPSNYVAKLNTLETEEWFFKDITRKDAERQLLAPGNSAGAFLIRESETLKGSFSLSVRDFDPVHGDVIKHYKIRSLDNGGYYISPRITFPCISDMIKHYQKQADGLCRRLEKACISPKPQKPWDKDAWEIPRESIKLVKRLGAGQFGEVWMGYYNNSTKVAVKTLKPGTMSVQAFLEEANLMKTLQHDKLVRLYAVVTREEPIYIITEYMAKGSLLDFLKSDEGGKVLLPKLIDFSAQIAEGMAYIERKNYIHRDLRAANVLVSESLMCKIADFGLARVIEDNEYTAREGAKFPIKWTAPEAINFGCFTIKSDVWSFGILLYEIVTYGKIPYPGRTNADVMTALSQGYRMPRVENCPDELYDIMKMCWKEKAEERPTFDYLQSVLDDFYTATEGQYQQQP
Platelet-derived growth factor receptor alpha, sequence (P16234 whole entry): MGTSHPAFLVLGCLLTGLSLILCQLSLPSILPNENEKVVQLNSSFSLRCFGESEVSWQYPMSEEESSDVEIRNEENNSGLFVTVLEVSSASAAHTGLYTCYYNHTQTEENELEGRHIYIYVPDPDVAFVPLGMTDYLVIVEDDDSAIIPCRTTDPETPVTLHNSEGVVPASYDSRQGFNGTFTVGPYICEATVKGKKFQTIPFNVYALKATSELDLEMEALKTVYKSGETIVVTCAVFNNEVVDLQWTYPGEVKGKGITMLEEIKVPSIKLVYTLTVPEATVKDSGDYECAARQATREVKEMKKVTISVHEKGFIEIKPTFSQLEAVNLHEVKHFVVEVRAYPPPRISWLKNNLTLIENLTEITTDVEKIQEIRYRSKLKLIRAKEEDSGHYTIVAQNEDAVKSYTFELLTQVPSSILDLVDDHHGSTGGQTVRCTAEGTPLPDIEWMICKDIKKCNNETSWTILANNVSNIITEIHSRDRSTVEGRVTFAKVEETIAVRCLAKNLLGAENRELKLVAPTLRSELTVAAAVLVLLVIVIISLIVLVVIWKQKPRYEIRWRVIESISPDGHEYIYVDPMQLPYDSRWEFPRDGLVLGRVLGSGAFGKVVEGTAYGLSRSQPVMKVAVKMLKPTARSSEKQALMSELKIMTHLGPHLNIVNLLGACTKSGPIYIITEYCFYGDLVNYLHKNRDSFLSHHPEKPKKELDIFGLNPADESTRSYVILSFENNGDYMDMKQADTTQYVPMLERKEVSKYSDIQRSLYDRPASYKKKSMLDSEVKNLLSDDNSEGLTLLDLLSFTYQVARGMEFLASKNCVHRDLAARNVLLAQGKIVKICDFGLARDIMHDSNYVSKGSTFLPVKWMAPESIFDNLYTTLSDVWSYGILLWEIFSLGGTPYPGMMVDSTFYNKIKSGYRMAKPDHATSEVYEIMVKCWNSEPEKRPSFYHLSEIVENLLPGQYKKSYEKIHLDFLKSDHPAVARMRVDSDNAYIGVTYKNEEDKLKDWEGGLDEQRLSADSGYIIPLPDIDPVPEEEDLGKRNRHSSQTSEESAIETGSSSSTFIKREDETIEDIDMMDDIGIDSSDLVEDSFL

## Cc1ccc(C(=O)Nc2ccc(CN3CCN(C)CC3)c(C(F)(F)F)c2)cc1C#Cc1cnc2cccnn12 [PONATINIB]
BaF3 [1]
  viability at 100 µM: 2.8%
KU812 cell line
  IC50: 0.1 nM
U-937
  IC50: 246 nM
Jurkat
  IC50: 295 nM
K562 [2]
  IC50: 10 nM
[3]
  Tmax: 1.5 h
[4]
  Tmax: 4.8 min
[5]
  Cmax: 70 ng/mL
[6]
  Cmax: 270 ng/mL
[7]
  AUC(0-t) at 24 h: 363 ng·h/mL
[8]
  AUC(0-t) at 24 h: 497 ng·h/mL
[9]
  AUC(0-inf): 432 ng·h/mL
[10]
  AUC(0-inf): 528 ng·h/mL
[11]
  MRT: 5.25 h
[12]
  MRT: 4.29 h
[13]
  half-life: 2.84 h
[14]
  half-life: 3.28 h
[15]
  clearance: 161 mL/min/kg
[16]
  Vd: 41 L/kg
[17]
  bioavailability: 27%
BaF3 [18]
  IC50: 0.9 nM
BaF3 [19]
  inhibition in vivo at 5 mg/kg: 53%

## Cc1ccc(-c2nc3ccc(CN4CCN(C)CC4)cc3[nH]2)cc1C#Cc1ccc(NC2CC2)nn1
BaF3 [1]
  viability at 100 µM: 88.9%

## Cc1cn(-c2ccc3nc(-c4ccc(C)c(C#Cc5cnc6cccnn56)c4)[nH]c3c2)cn1
BaF3 [1]
  viability at 100 µM: 94.1%

## Cc1ccc(NC(=O)c2ccc(CN3CCN(C)CC3)cc2)cc1Nc1nccc(-c2cccnc2)n1 [IMATINIB]
KU812 cell line
  IC50: 51.3 nM
U-937
  IC50: > 1000 nM
Jurkat
  IC50: > 1000 nM
BaF3 [18]
  IC50: > 100 nM
BaF3 [20]
  IC50: > 100 nM
K562 [21]
  IC50: 82.9 nM

## CN1CCN(Cc2ccc3nc(-c4ccc(Cl)c(C#Cc5cnc(NC6CC6)nc5)c4)[nH]c3c2)CC1
BaF3 [1]
  viability at 100 µM: 105%

## CN1CCN(Cc2ccc(NC(=O)N3CCC(C#Cc4cnc5cccnn45)C3)cc2C(F)(F)F)CC1 (stereo not drawn)
BaF3 [1]
  viability at 100 µM: 91.9%

## Cc1ccc(C(=O)Nc2ccc3c(c2)C(F)(F)C[C@@H]3N2CCN(C)CC2)cc1C#Cc1cnc2cccnn12
[22]
  IC50: 11100 nM
Salmonella typhimurium [23]
  Activity: Non-Toxic
Salmonella typhimurium [24]
  Activity: Non-Toxic
Salmonella typhimurium [25]
  Activity: Non-Toxic
Salmonella typhimurium [26]
  Activity: Non-Toxic
[27]
  Activity: Non-Toxic
[28]
  MTD at 336 h: 100 mg/kg
[3]
  Tmax: 5 h
[4]
  Tmax: 4.8 min
[5]
  Cmax: 129 ng/mL
[6]
  Cmax: 1470 ng/mL
[7]
  AUC(0-t) at 24 h: 1390 ng·h/mL
[8]
  AUC(0-t) at 24 h: 1390 ng·h/mL
[9]
  AUC(0-inf): 1440 ng·h/mL
[10]
  AUC(0-inf): 1500 ng·h/mL
[11]
  MRT: 8.22 h
[12]
  MRT: 5.11 h
[13]
  half-life: 4.61 h
[14]
  half-life: 5.3 h
[15]
  clearance: 62 mL/min/kg
[16]
  Vd: 18.1 L/kg
[17]
  bioavailability: 32%
[29]
  IC50: < 10 nM
[30]
  IC50: < 10 nM
[31]
  IC50: < 10 nM
[32]
  IC50: < 10 nM
[33]
  IC50: < 10 nM
Salmonella typhimurium [34]
  Activity: Non-Toxic

## Cc1ccc(-c2nc3ccc(CN4CCN(C)CC4)cc3[nH]2)cc1C#Cc1ccc(NC(C)C)nn1
BaF3 [1]
  viability at 100 µM: 96.5%

## Cc1ccc(-c2nc3ccc(CN4CCN(C)CC4)cc3[nH]2)cc1C#Cc1cnc(NC2CC2)nc1
BaF3 [1]
  viability at 100 µM: 90.4%

## Cc1cn(-c2cc(NC(=O)c3ccc(C)c(Nc4nccc(-c5cccnc5)n4)c3)cc(C(F)(F)F)c2)cn1 [NILOTINIB]
KU812 cell line
  IC50: 1.8 nM
U-937
  IC50: > 1000 nM
Jurkat
  IC50: > 1000 nM
BaF3 [18]
  IC50: 11.8 nM
BaF3 [20]
  IC50: > 100 nM
K562 [21]
  IC50: 1.8 nM
